# According to PMC9511483, “Refinement of Computational Access to Molecular Physicochemical Properties: From Ro5 to bRo5” (Journal of Medicinal Chemistry, 2022):
# Key:
# [1] = parameters: method as in Clark 1999; details: atom selection N, O, S, P, H; ref Clark 1999; cited from earlier work
# [2] = Δlog Poct-tol IMHB propensity; type: physicochemical; details: difference between log Poct and log Ptol
# From the text: Δlog Poct-tol([24]) (the difference between log Poct and log Ptol) is an indicator of the capacity of a compound to expose HDon groups, and thus it quantifies the molecular capacity to form dynamic IMHBs. […] Our data support that Saquinavir is the compound with the highest capacity to form IMHB, its Δlog Poct-tol being 0.79. Pomalidomide and CMP 98 show poorer propensity to mask HDon groups, although not negligible.
# [3] = parameters: method as in PMID 29608068; details: cited from earlier work
# [4] = PLRP-S retention at 50-100% ACN (chameleonicity); type: physicochemical; details: mobile phases 50 to 100% ACN
# From the text: In a recent paper, we proposed to monitor the propensity of compounds to assume a chameleonic behavior through the analysis of the variation of the capacity factor in a nonpolar polymeric chromatographic system, named PLRP-S.[16] Here we applied the same approach and determined the retention of the three compounds in the PLRP-S system with various mobile phases (from 50 to 100% ACN). According to the reverse-phase (RP) nature of the system, the retention time (and thus log k′ PLRP-S) of lipophilic molecules is expected to decrease when increasing the amount of acetonitrile in the mobile phase. […] This experimental finding can be explained by a propensity of Saquinavir to change its conformation in a nonpolar environment, masking its polarity supporting the chameleonic properties of this compound.
# [5] = EPSA supercritical fluid chromatography polarity; type: physicochemical; details: SFC, Chirex 3014
# Description: EPSA was determined following the SFC protocol by Goetz and co-workers.[17] Briefly, a polar stationary phase (Chirex 3014) and a nonpolar mobile phase (supercritical CO2 with the addition of 20 mM ammonium formate in methanol as a modifier) were used to enable separation of compounds based on their polarity. The modifier was varied in 11 min from 5% to 60% at 5%/min in a linear gradient, holding at 60% for 4.9 min and reverting to the original 5% in 0.1 min. The flow rate was 5 mL/min, with the outlet back pressure set to 100 bar instead of 140 bar of the original method. Samples were dissolved in DMSO, the injection volume was 5 μL. The column temperature was set to 40 °C.
# [6] = log kW^IAM chromatographic lipophilicity (IAM.PC.DD2 column); type: physicochemical; details: extrapolated to 100% buffer, pH 7.0
# Description: (§1) Mobile phases consisted of an isocratic solution of 20 mM ammonium acetate at pH 7.0 and acetonitrile at various percentages (see specific method). Samples were dissolved in buffer/acetonitrile at concentrations ranging from 50 to 100 μg/mL. Chromatographic measurements were analyzed in duplicate. Then 10 μL of each solution (volume of injection) were injected at an isocratic 1 mL/min flow rate, analyzed at 30 °C (oven temperature). Each chromatographic descriptor required a specific HPLC method (see below).
# Dissolved samples were injected into column IAM.PC.DD2, and retention times were recorded at different mobile phase percentages (from 10 to 50% ACN). Capacity factor was calculated for each mobile phase condition using equation: k′ = [tR – t0]/t0) t0 being the retention time of a nonretained molecule (citric acid). The log kW^IAM value for each molecule was calculated by extrapolating the 100% buffer value (0% ACN) from the equation obtained with the five mobile phase conditions, previously mentioned. In addition, five standards (caffeine, carbamazepine, ketoprofen, theobromine, and toluene) were examined on a daily basis.[33]
# Caco-2 = details: cited from earlier work
# [7] = log k′80 PLRP-S chromatographic lipophilicity; type: physicochemical; details: 80% ACN
# Description: as §1
# The retention times of the three samples were recorded at 80% ACN and capacity factors were calculated. Moreover, gold standards (acetone, caffeine, phenol, uracil–acetophenone--toluene mix and benzene) were daily checked.[15]
# [8] = BRlogD chromatographic lipophilicity (XBridge Shield RP18); type: physicochemical
# Description: as §1
# The three compounds previously dissolved in ACN were injected into the X-Bridge column (mobile phase: 40% buffer, 60% ACN), and the retention times and dead time (t0, baseline disturbance) were recorded. Consequently, capacity factor log k′60 was calculated (log k′60 = [tR – t0]/t0). The corresponding BRlogD value was obtained using equation: BRlogD = 3.31 × log k′60 + 2.79.[12] The used standard is acetone, caffeine, ibuprophen, lidocaine, phenol and a mixture of uracile, acetophenone and toluene.
# [9] = log Ptol, miniaturized shake-flask toluene/water; type: physicochemical
# Description: log Ptol was determined with an automated, miniaturized shake flask method in a 96-well format according to the protocol described by Shalaeva and co-workers.[24]
# [10] = Δlog kW^IAM polarity descriptor; type: physicochemical; details: experimental log kW^IAM minus clog kW^IAM from BRlogD
# From the text: Δlog kW^IAM was earlier defined by Grumetto et al.[48] as (Δlog kW^IAM = experimental log kW^IAM – clog kW^IAM (log kW^IAM for neutral and nonpolar compounds with PSA = 0). Moreover, clog kW^IAM was correlated to log P (octanol/water)[48] and more recently to BRlogD[12] with equation (clog kW^IAM = BRlogD* 0.92–1.03). Therefore, the measurement of BRlogD and log kW^IAM for the three samples allowed to calculate polarity descriptor Δlog kW^IAM.
# Thermodynamic solubility = type: physicochemical; details: for solubility: 25 °C, thermodynamic from solid, thermodynamic solubility, read-out: Solubility 25ºC log S (converted)
# Description: Table S1: Thermodynamic solubility and permeability data of the three selected compounds.
# Solubility 25 °C Permeability
# Molecules log S (mol/l) (cm/s x 10 )
# [11] = SI Table S1; cited from earlier work
smiles,measurement,setting,value
O=C1CN=C(c2ccccn2)c2cc(Br)ccc2N1 [Bromazepam],3D PSA PSA Clark 1999,[1],57.4 Å2
Nc1nnc(-c2cccc(Cl)c2Cl)c(N)n1 [Lamotrigine],3D PSA PSA Clark 1999,[1],96.4 Å2
CC(C)(C)NC(=O)[C@@H]1C[C@@H]2CCCC[C@@H]2CN1C[C@@H](O)[C@H](Cc1ccccc1)NC(=O)[C@H](CC(N)=O)NC(=O)c1ccc2ccccc2n1 [Saquinavir],Δlog P (Δlog Poct-tol),[2],0.79
same,pKa,[3],7.1
same,log k′ PLRP-S behaviour with increasing acetonitrile (chameleonicity index),[4],significantly higher than expected
same,EPSA,[5],94 A^2
same,log kW^IAM,[6],3.44
same,Permeability (Caco-2 with efflux inhibiton),"Caco-2; Caco-2 with efflux inhibition, ref 11 (SI)",5.0 cm/s x 10^-6
same,Permeability mechanism,Caco-2; ref 11 (SI),Mainly active transport
same,log k´80 PLRP-S,[7],-0.1
same,BRlogD,[8]; pH 7,2.85
same,log Ptol (SF),[9],2.06
same,Δlog kW^IAM,[10],1.85
Cn1c(=O)c2[nH]cnc2n(C)c1=O [Theophylline],3D PSA PSA Clark 1999,[1],74.7 Å2
CN1C(=O)C(O)N=C(c2ccccc2Cl)c2cc(Cl)ccc21 (stereo not drawn) [Lormetazepam],3D PSA PSA Clark 1999,[1],55.9 Å2
O=c1ccc2ccccc2o1 [Coumarin],3D PSA PSA Clark 1999,[1],33.9 Å2
Cn1c(=O)c2c(ncn2C)n(C)c1=O [Caffeine],3D PSA PSA Clark 1999,[1],59.2 Å2
Nc1cccc2c1C(=O)N(C1CCC(=O)NC1=O)C2=O (stereo not drawn) [Pomalidomide],Δlog P (Δlog Poct-tol),[2],1.63
same,log k′ PLRP-S behaviour with increasing acetonitrile (chameleonicity index),[4],about in line with expectations
same,EPSA,[5],82 A^2
same,log kW^IAM,[6],0.91
same,Permeability (Caco-2),"Caco-2; Caco-2, ref 13 (SI)",24.9 cm/s x 10^-6
same,log k´80 PLRP-S,[7],-0.65
same,BRlogD,"[8]; 60% ACN, ammonium acetate pH 7.0",1.41
same,solubility,Thermodynamic solubility,28.2 µM
same,log Ptol (SF),[9],-0.22
same,Δlog kW^IAM,[10],0.64
CC(=O)[C@H]1CC[C@H]2[C@@H]3CCC4=CC(=O)CC[C@]4(C)[C@H]3CC[C@]12C [Progesterone],3D PSA PSA Clark 1999,[1],41.2 Å2
O=C(O)c1ccccc1O [Salicylic Acid],3D PSA PSA Clark 1999,[1],62.5 Å2
Cc1ncsc1-c1ccc(CNC(=O)[C@@H]2C[C@H](O)CN2C(=O)[C@@H](NC(=O)COCCOCCOCCOCCOCCOCC(=O)N[C@H](C(=O)N2C[C@@H](O)C[C@H]2C(=O)NCc2ccc(-c3scnc3C)cc2)C(C)(C)C)C(C)(C)C)cc1 [CMP 98],Δlog P (Δlog Poct-tol),[2],1.62
same,log k′ PLRP-S behaviour with increasing acetonitrile (chameleonicity index),[4],some deviation from linearity
same,EPSA,[5],104 A^2
same,PAMPA permeability,[11],not PAMPA permeable
same,log kW^IAM,[6],2.34
same,log k´80 PLRP-S,[7],-0.84
same,chromatographic logD,"[8]; XBridge Shield RP18 HPLC column, 60% ACN, ammonium acetate pH 7.0",1.38
same,solubility,Thermodynamic solubility,331 µM
same,water solubility,Thermodynamic solubility; SI Table S1,water-soluble
same,log Ptol (SF),[9],-0.24
same,Δlog kW^IAM,[10],2.1
CC(=O)Nc1ccc(O)cc1 [Acetaminophen],3D PSA PSA Clark 1999,[1],58.5 Å2
Cc1cc(=O)n(-c2ccccc2)n1C [Phenazone],3D PSA PSA Clark 1999,[1],28 Å2
